Results as given in patent US20050143450A1, “Alkyl PCDF as a treatment for prostate cancer” (priority 2002, published 2005).
Where two headings read alike, the source gives them in different places.

Columns and labels:
AR [1] = target: T1, AR (Homo sapiens, UniProt P10275, T878A); assay type: cell-based; conditions: LNCaP, pPB, HPTE 10 μM
T1 construct: AR protein levels in whole cell lysates were determined by Western blot analysis; endogenous in cells; host or cells: LNCaP
T1 sequence (P10275 1-920 T878A): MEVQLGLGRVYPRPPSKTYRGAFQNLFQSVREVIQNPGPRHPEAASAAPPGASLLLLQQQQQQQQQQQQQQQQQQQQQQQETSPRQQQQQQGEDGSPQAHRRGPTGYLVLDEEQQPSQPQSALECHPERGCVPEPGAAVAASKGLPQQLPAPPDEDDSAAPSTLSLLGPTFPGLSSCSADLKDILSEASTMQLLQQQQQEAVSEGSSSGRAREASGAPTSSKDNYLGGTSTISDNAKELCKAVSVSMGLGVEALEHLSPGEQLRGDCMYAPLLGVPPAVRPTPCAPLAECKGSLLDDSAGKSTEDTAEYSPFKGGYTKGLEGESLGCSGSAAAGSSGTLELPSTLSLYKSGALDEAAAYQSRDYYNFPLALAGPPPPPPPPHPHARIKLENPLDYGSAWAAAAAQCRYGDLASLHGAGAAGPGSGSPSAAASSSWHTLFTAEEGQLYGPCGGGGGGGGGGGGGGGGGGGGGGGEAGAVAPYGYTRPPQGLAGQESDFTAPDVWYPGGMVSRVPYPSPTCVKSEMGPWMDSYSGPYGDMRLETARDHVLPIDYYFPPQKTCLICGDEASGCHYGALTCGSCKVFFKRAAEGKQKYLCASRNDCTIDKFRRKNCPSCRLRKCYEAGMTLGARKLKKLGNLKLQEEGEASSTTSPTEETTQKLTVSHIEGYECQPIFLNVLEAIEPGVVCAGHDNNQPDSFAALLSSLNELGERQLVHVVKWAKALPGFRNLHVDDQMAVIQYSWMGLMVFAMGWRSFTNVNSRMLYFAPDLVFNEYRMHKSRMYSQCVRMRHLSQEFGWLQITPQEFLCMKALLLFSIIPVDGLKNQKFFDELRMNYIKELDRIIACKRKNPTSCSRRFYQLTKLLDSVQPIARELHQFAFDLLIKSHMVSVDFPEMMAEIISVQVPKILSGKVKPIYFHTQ
Experimental: (§1) After 24 h, cells were transfected using Lipofectamine and Plus reagents (Invitrogen) according to manufacturer's instructions. LNCaP and ZR-75 cells were transfected with 500 ng/well of either reporter plasmid, and 250 ng/well of pcDNA3.1-β-gal (Invitrogen) as the internal control. In addition, ZR-75 cells were transfected with 500 ng hAR. Twenty-four hours after treatment, cells were harvested by scraping with 200 μL/well of reporter lysis buffer. Lysates were centrifuged at 40,000 g and luciferase and β-galactosidase activity was assayed with 30 μL of the supernatant extract per sample using a Lumicount luminometer (PerkinElmer, Boston, Mass.). Luciferase activity was normalized to β-galactosidase activity for each transfection well.
The transfected cells were then treated with hormone or AhR agonist alone or in combination and luciferase activity was determined as described in the above examples.

AR [2] = assay: AR protein levels in LNCaP cells by Western blot; assay type: cell-based, human; conditions: 6 h
Experimental: Cells were harvested 6 h after treatment using 200 μL/22-mm well of ice cold lysis buffer (50 mM HEPES, pH 7.5, 500 mM NaCl, 10% (v/v) glycerol, 1% (v/v) Triton-X 100, 1.5 mM MgCl2, 1 mM EGTA) (McDougal et al., 2001). Lysates were centrifuged at 40,000 g, and supernatant was collected as extract. Whole cell extracts (50 μg/sample) were separated by electrophoresis on a tiered 7.5% (top)/12.5% (bottom) SDS-polyacrylamide gel and transferred to PVDF membrane (Bio-Rad, Richmond, Calif.). The membrane was blocked with 5% milk (m/v) in tris-buffered saline 0.05% Tween (TBST). Membranes were incubated with primary antibodies for AR (sc-7305), cyclin D1 (sc-718), or p27 (sc-528) (each from Santa Cruz Biotechnology, Santa Cruz, Calif.) at 1:1000 in 5% milk/TBST for 3 h. Membranes were washed twice in TBST. Horseradish peroxidase (HRP)-conjugated secondary antibodies were applied at 1:5000 in 5% milk/TBST for 1 h. After two TBST washes, PVDF-bounded antibodies were detected using a chemiluminescence kit (Western Lightning, PerkinElmer), ImageTek-H film (American X-Ray and Medical Supply, Rancho Cordova, Calif.) and an autoprocessor (Hope Macro-Med, Warminster, Pa.). Quantitation of the Western blot was performed using a Sharp JX-330 scanner (Sharp, Mahwah, N.J.) and Zero-D software (Scanalytics, Billerica, Mass.).

AR [3] = target: T1, AR; assay type: cell-based; conditions: LNCaP
Experimental: as §1
Next, LNCaP cells were transfected with pARR3 construct that contained three tandem (3) copies of the probasin androgen response element. The transfected cells were treated with hormone or AhR agonist alone or in combination and luciferase activity was determined as described in the above examples.

AhR = target: T2, AhR (Homo sapiens, UniProt P35869); assay: AhR activation, pDRE3 luciferase transient transfection in LNCaP cells; assay type: cell-based
T2 construct: LNCaP cells were transfected with pDRE3, treated with various compounds and luciferase activity was determined; endogenous in cells; host or cells: LNCaP
T2 sequence (P35869 11-848): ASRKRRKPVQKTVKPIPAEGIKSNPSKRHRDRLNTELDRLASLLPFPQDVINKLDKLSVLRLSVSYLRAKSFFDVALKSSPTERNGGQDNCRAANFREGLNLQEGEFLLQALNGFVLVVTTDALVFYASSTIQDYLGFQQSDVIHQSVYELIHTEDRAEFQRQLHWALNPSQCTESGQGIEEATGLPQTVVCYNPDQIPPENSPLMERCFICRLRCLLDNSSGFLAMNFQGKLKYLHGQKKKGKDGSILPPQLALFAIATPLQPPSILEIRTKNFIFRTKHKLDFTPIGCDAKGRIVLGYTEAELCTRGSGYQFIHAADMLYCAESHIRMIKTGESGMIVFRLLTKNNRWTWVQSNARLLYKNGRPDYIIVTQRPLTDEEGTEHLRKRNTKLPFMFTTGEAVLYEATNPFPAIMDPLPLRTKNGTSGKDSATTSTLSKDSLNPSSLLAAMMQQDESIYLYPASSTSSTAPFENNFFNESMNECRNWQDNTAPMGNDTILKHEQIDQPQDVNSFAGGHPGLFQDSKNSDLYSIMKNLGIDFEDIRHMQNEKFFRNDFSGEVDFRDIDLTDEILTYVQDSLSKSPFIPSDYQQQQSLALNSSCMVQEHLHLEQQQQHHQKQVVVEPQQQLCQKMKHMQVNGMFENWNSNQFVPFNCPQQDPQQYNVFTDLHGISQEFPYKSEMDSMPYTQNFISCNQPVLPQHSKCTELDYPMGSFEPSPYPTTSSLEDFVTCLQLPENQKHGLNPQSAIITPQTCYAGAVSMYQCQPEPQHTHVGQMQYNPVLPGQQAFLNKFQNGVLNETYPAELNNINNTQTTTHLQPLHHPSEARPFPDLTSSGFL
Experimental: as §1
LNCaP cells were transfected with pDRE3, treated with various compounds and luciferase activity was determined as described in the above Examples.

[4] = test system: androgen-responsive probasin gene promoter (pPB); assay type: cell-based, human
Experimental: as §1, with “ZR-75 human breast cancer and LNCaP human prostate cancer cells were obtained from American Type Culture Collection (Manassas, Va.) and were maintained in RPMI 1640 medium supplemented with 10% FBS, 1% antibiotic/antimycotic solution, 1.5 g/L sodium bicarbonate, and 10 mM HEPES, final pH of 7.4. Cells were seeded at 2.75×10^5 per 22-mm well in DME-F12 without phenol red, supplemented with 2.5% charcoal-stripped fetal bovine serum (FBS). After” for “After”

LNCaP cells = assay type: cell-based, human
Experimental: After trypsinization and low-speed centrifugation, LNCaP cells were resuspended and counted using a Coulter cell counter (Beckman Coulter, Fullerton, Calif.). Cells were seeded at a density of 5×10^4/35-mm well using DME-F12 without phenol red, supplemented with 2.5% charcoal-stripped fetal bovine serum (FBS). Twenty-four hours after seeding, initial treatment was applied and then subsequently reapplied with fresh medium every two days until harvesting by trypsinization. Cells were counted after harvesting using a Coulter counter.

[5] = test system: LNCaP prostate cancer cells; assay type: cell-based, human
Experimental: Cells were analyzed on a FACS Calibur (Becton Dickinson, San Jose, Calif.) flow cytometer, equipped with a 15 mW air-cooled argon laser, using CellQuest (Becton Dickinson) acquisition software. Propidium iodide (PI) fluorescence was collected through a 585/42-nm bandpass filter, and list mode data were acquired on a minimum of 12,000 single cells defined by a dot plot of PI-width versus PI-area. Data analysis was performed in ModFit LT (Verity Software House, Topsham, Me.) using PI-width versus PI-area to exclude cell aggregates.
The effects of TCDD on cell cycle progression was also determined in LNCaP cells treated with 1.0, 10 and 100 nM TCDD for 48 h followed by FACS analysis (Table 1).

## C[C@]12CC[C@@H]3c4ccc(O)cc4C[C@@H](CCCCCCCCC[S+]([O-])CCCC(F)(F)C(F)(F)F)[C@H]3[C@@H]1CC[C@@H]2O (stereo partly shown) [ICI 182780]
AR [1]; cotreatment with 10 nM DHT, MCDF 2 μM
  effect on DHT-induced luciferase activity: only minimal inhibition
AR [1]; cotreatment with 10 nM E2
  effect on E2-induced luciferase activity: significantly inhibited
AR [2]
  AR levels in combination with DHT compared to DHT alone: not decreased
  AR levels in combination with E2 compared to E2 alone: not decreased
AR [2]; DHT 10 nM, E2 10 nM, TCDD 10 nM, 6-MCDF 2 μM, HPTE 10 μM
  AR protein levels, compound alone: increased
AR [3]; pARR3, cotreatment with DHT
  effect on DHT-induced luciferase activity: inhibited
AR [3]; pARR3, cotreatment with E2
  effect on E2-induced luciferase activity: inhibited

## C[C@]12CCC(=O)C[C@@H]1CC[C@@H]1[C@@H]2CC[C@]2(C)[C@@H](O)CC[C@@H]12 [DHT, dihydrotestosterone]
AhR; pDRE3, 10 nM
  luciferase activity induction compared to solvent control (DMSO): did not significantly induce activity
AhR; pDRE3, hormone in combination with 6-MCDF
  effect on 6-MCDF-induced luciferase activity: significantly inhibited
[4]
  reporter gene activity: did not activate
LNCaP cells
  hormone-induced cell growth: not observed
[5]
  Percent Distribution G0/G1: 73.400 ± 1.179%
  Percent Distribution G2/M: 9.433 ± 1.011%
  Percent Distribution S: 17.167 ± 0.296%
  cell cycle distribution, difference between solvent (DMSO) and DHT: minimal differences

## C[C@]12CC[C@@H]3c4ccc(O)cc4CC[C@H]3[C@@H]1CC[C@@H]2O [E2, 17β-estradiol]
[4]; ZR-75 cells, pPB alone
  reporter gene activity: did not activate
